{
  "source": "patent US20160326142A1",
  "about": "“PYRAZOLE CARBOXAMIDE COMPOUNDS, COMPOSITIONS AND METHODS OF USE” (Genentech, Inc., priority 2012, published 2016)",
  "note": "pKi: −log10 of the molar value.",
  "data": [
    {"target": "T1, ITK (Homo sapiens, UniProt Q08881)", "T1 construct": "purchased Invitrogen PV3875", "T1 sequence (Q08881 1-620)": "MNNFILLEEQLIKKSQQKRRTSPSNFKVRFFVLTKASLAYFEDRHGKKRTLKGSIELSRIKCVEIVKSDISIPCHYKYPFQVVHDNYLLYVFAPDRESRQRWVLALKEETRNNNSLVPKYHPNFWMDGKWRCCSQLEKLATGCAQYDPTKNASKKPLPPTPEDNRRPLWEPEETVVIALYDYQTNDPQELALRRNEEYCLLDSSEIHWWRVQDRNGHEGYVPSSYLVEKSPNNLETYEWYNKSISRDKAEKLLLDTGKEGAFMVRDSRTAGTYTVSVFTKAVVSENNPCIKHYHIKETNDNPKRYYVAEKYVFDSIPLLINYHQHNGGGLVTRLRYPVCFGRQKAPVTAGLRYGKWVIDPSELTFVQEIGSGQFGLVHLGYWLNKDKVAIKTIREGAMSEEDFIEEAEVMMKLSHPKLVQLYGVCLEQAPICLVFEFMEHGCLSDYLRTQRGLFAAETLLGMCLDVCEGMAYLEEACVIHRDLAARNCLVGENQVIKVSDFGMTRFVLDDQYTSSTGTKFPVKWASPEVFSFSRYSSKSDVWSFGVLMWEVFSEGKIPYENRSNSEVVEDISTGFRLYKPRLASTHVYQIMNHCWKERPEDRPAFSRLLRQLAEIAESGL", "experiment": "ITK enzyme assay (Caliper or LCMS peptide phosphorylation)", "format": "biochemical", "settings": "purified ITK (Invitrogen PV3875), 20 μM ATP, Ki by Morrison's quadratic equation", "summary_of_the_method": "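Ki values come from Morrison quadratic fits of activity versus inhibitor concentration, adjusted for ATP-competitive inhibition against ATP/Km,app. Substrate and phosphopeptide from purified ITK reactions were resolved either microfluidically (Caliper, EDTA stop) or by LC-MS MRM (TCA stop).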", "values": [
      {"smiles": "CC12Cc3[nH]nc(C(=O)Nc4cnn(Cc5ccccc5)c4)c3C1C2", "note": "(single isomer, unassigned) [Example 150b, N-(1-benzyl-1H-pyrazol-4-yl)-4a-methyl-3b,4,4a,5-tetrahydro-1H-cyclopropa[3,4]cyclopent a[1,2-c]pyrazole-3-carboxamide]", "pKi": 7.49},
      {"smiles": "CC12Cc3c(C(=O)Nc4cnn(Cc5ccccc5)c4)n[nH]c3C1C2", "note": "(single isomer, unassigned) [Example 151a, N-(1-benzyl-1H-pyrazol-4-yl)-4a-methyl-4,4a,5,5a-tetrahydro-1H-cyclopropa[4,5]cyclopent a[1,2-c]pyrazole-3-carboxamide]", "pKi": 7.80},
      {"smiles": "CC12Cc3c(C(=O)Nc4cnn(Cc5ccccc5)c4)n[nH]c3C1C2", "note": "(single isomer, unassigned) [Example 151b, N-(1-benzyl-1H-pyrazol-4-yl)-4a-methyl-4,4a,5,5a-tetrahydro-1H-cyclopropa[4,5]cyclopent a[1,2-c]pyrazole-3-carboxamide]", "pKi": 7.92},
      {"smiles": "CC12Cc3c(C(=O)Nc4cnn(C(c5ccccc5)C5CCS(=O)(=O)CC5)c4)n[nH]c3C1C2", "note": "(single isomer, unassigned) [Example 152a, N-(1-((1,1-dioxidotetrahydro-2H-thiopyran-4-yl)(phenyl)methyl)-1H-pyrazol-4-yl)-4a-methyl-4,4a,5,5a-tetrahydro-1H-cyclopropa[4,5]cyclopenta[1,2-c]pyrazole-3-carboxamide]", "pKi": 7.38},
      {"smiles": "CC12Cc3c(C(=O)Nc4cnn(C(c5ccccc5)C5CCS(=O)(=O)CC5)c4)n[nH]c3C1C2", "note": "(single isomer, unassigned) [Example 152b, N-(1-((1,1-dioxidotetrahydro-2H-thiopyran-4-yl)(phenyl)methyl)-1H-pyrazol-4-yl)-4a-methyl-4,4a,5,5a-tetrahydro-1H-cyclopropa[4,5]cyclopenta[1,2-c]pyrazole-3-carboxamide]", "pKi": 8.52},
      {"smiles": "CC12Cc3c(C(=O)Nc4cnn(C(c5ccccc5)C5CCS(=O)(=O)CC5)c4)n[nH]c3C1C2", "note": "(single isomer, unassigned) [Example 152c, N-(1-((1,1-dioxidotetrahydro-2H-thiopyran-4-yl)(phenyl)methyl)-1H-pyrazol-4-yl)-4a-methyl-4,4a,5,5a-tetrahydro-1H-cyclopropa[4,5]cyclopenta[1,2-c]pyrazole-3-carboxamide]", "pKi": 8.70},
      {"smiles": "CC12Cc3c(C(=O)Nc4cnn(C(c5ccccc5)C5CCS(=O)(=O)CC5)c4)n[nH]c3C1C2", "note": "(single isomer, unassigned) [Example 152d, N-(1-((1,1-dioxidotetrahydro-2H-thiopyran-4-yl)(phenyl)methyl)-1H-pyrazol-4-yl)-4a-methyl-4,4a,5,5a-tetrahydro-1H-cyclopropa[4,5]cyclopenta[1,2-c]pyrazole-3-carboxamide]", "pKi": 7.82},
      {"smiles": "CC12CCc3c(C(=O)Nc4cnn(Cc5ccccc5)c4)n[nH]c3C1C2", "note": "(single isomer, unassigned) [Example 153a, N-(1-benzyl-1H-pyrazol-4-yl)-5a-methyl-1,4,5,5a,6,6a-hexahydrocyclopropa[g]indazole-3-c arboxamide]", "pKi": 7.24},
      {"smiles": "CC12CCc3c(C(=O)Nc4cnn(Cc5ccccc5)c4)n[nH]c3C1C2", "note": "(single isomer, unassigned) [Example 153b, N-(1-benzyl-1H-pyrazol-4-yl)-5a-methyl-1,4,5,5a,6,6a-hexahydrocyclopropa[g]indazole-3-c arboxamide]", "pKi": 7.82},
      {"smiles": "CC1(C)CCc2c(C(=O)Nc3cnn(C(c4cccc(S(C)(=O)=O)c4)C4CCOCC4)c3)n[nH]c2C1", "note": "(single isomer, unassigned) [Example 154a, 6,6-dimethyl-N-(1-((3-(methylsulfonyl)phenyl)(tetrahydro-2H-pyran-4-yl)methyl)-1H-pyrazol-4-yl)-4,5,6,7-tetrahydro-1H-indazole-3-carboxamide]", "pKi": 10.00},
      {"smiles": "CC1(C)CCc2c(C(=O)Nc3cnn(C(c4cccc(S(C)(=O)=O)c4)C4CCOCC4)c3)n[nH]c2C1", "note": "(single isomer, unassigned) [Example 154b, 6,6-dimethyl-N-(1-((3-(methylsulfonyl)phenyl)(tetrahydro-2H-pyran-4-yl)methyl)-1H-pyrazol-4-yl)-4,5,6,7-tetrahydro-1H-indazole-3-carboxamide]", "pKi": 9.00},
      {"smiles": "N#Cc1cccc(Cn2cc(NC(=O)c3n[nH]c4c3CCCC4)cn2)c1", "note": "[Example 3, N-(1-(3-cyanobenzyl)-1H-pyrazol-4-yl)-4,5,6,7-tetrahydro-1H-indazole-3-carboxamide]", "pKi": 7.51},
      {"smiles": "O=C(Nc1cnn(Cc2ccccc2)c1)c1n[nH]c2c1CC1(CC2)COC1", "note": "[Example 13, N-(1-benzyl-1H-pyrazol-4-yl)-1,4,6,7-tetrahydrospiro[indazole-5,3′-oxetane]-3-carboxamide]", "pKi": 6.62},
      {"smiles": "O=C(Nc1cnn(Cc2ccccc2)c1)c1n[nH]c2c1CC(F)(F)CC2", "note": "[Example 17, N-(1-benzyl-1H-pyrazol-4-yl)-5,5-difluoro-4,5,6,7-tetrahydro-1H-indazole-3-carboxamide]", "pKi": 7.44},
      {"smiles": "N#Cc1cccc(Cn2cc(NC(=O)c3n[nH]c4c3CCC4)cn2)c1", "note": "[Example 20, N-(1-(3-cyanobenzyl)-1H-pyrazol-4-yl)-1,4,5,6-tetrahydrocyclopenta[c]pyrazole-3-carboxamide]", "pKi": 7.05},
      {"smiles": "CC1(C)Cc2[nH]nc(C(=O)Nc3cnn(Cc4ccccc4)c3)c2C1", "note": "[Example 21, N-(1-benzyl-1H-pyrazol-4-yl)-5,5-dimethyl-1,4,5,6-tetrahydrocyclopenta[c]pyrazole-3-carb oxamide]", "pKi": 8.13},
      {"smiles": "O=C(Nc1cnn(Cc2ccccc2)c1)c1n[nH]c2c1C1CC(C2)C1", "note": "[Example 31, N-(1-benzyl-1H-pyrazol-4-yl)-4,5,6,7-tetrahydro-1H-4,6-methanoindazole-3-carboxamide]", "pKi": 6.59},
      {"smiles": "O=C(Nc1cnn(Cc2ccccc2)c1)c1n[nH]c2c1CC1CC2C1", "note": "[Example 32, N-(1-benzyl-1H-pyrazol-4-yl)-4,5,6,7-tetrahydro-1H-5,7-methanoindazole-3-carboxamide]", "pKi": 7.42},
      {"smiles": "CC1(O)CCc2c(C(=O)Nc3cnn(Cc4ccccc4)c3)n[nH]c2C1", "note": "(centres unmarked) [Example 51b, N-(1-benzyl-1H-pyrazol-4-yl)-6-hydroxy-6-methyl-4,5,6,7-tetrahydro-1H-indazole-3-carboxamide]", "pKi": 6.07},
      {"smiles": "CN(C)CCC(c1ccccc1)n1cc(NC(=O)c2n[nH]c3c2CCC2(CCCO2)C3)cn1", "note": "(centres unmarked) [Example 59, N-(1-(3-(dimethylamino)-1-phenylpropyl)-1H-pyrazol-4-yl)-1′,4,4′,5,5′,7′-hexahydro-3H-spiro[furan-2,6′-indazole]-3′-carboxamide]", "pKi": 7.40},
      {"smiles": "CC12Cc3[nH]nc(C(=O)Nc4cnn(C(CCS(C)(=O)=O)c5ccccc5)c4)c3CC1C2", "note": "(centres unmarked) [Example 69a, 5a-methyl-N-(1-(3-(methylsulfonyl)-1-phenylpropyl)-1H-pyrazol-4-yl)-1,4,4a,5,5a,6-hexahydrocyclopropa[f]indazole-3-carboxamide]", "pKi": 8.70},
      {"smiles": "CC1(C)Cc2[nH]nc(C(=O)Nc3cnn(Cc4ccccc4)c3)c2CCO1", "note": "[Example 71a, N-(1-benzyl-1H-pyrazol-4-yl)-7,7-dimethyl-4,5,7,8-tetrahydro-1H-oxepino[4,5-c]pyrazole-3-carboxamide]", "pKi": 5.40},
      {"smiles": "CC1(C)Cc2c(C(=O)Nc3cnn(Cc4ccccc4)c3)n[nH]c2CCO1", "note": "[Example 71b, N-(1-benzyl-1H-pyrazol-4-yl)-5,5-dimethyl-4,5,7,8-tetrahydro-1H-oxepino[4,5-c]pyrazole-3-carboxamide]", "pKi": 6.10},
      {"smiles": "CN(C)CCn1cc(NC(=O)c2n[nH]c3c2CCC(C)(C)C3)cn1", "note": "[Example 72, N-(1-(2-(dimethylamino)ethyl)-1H-pyrazol-4-yl)-6,6-dimethyl-4,5,6,7-tetrahydro-1H-indazole-3-carboxamide]", "pKi": 7.11},
      {"smiles": "CC1(C)CCc2c(C(=O)Nc3cnn(C(c4ccccc4)C4CN(CCF)C4)c3)n[nH]c2C1", "note": "(centres unmarked) [Example 75b, N-(1-((1-(2-fluoroethyl)azetidin-3-yl)(phenyl)methyl)-1H-pyrazol-4-yl)-6,6-dimethyl-4,5,6,7-tetrahydro-1H-indazole-3-carboxamide]", "pKi": 9.52},
      {"smiles": "O=C(Nc1cnn(Cc2ccccc2)c1)c1n[nH]c2c1CC1(COC1)C2", "note": "[Example 82, N-(1-benzyl-1H-pyrazol-4-yl)-4,6-dihydro-1H-spiro[cyclopenta[c]pyrazole-5,3′-oxetane]-3-c arboxamide]", "pKi": 7.21},
      {"smiles": "CC1(C)CCc2c(C(=O)Nc3cnn(Cc4ccnc(N)c4)c3)n[nH]c2C1", "note": "[Example 111, N-(1-((2-aminopyridin-4-yl)methyl)-1H-pyrazol-4-yl)-6,6-dimethyl-4,5,6,7-tetrahydro-1H-indazole-3-carboxamide]", "pKi": 8.10},
      {"smiles": "CC1(C)CCc2c(C(=O)Nc3cnn(Cc4cccnc4N)c3)n[nH]c2C1", "note": "[Example 112, N-(1-((2-aminopyridin-3-yl)methyl)-1H-pyrazol-4-yl)-6,6-dimethyl-4,5,6,7-tetrahydro-1H-indazole-3-carboxamide]", "pKi": 8.22},
      {"smiles": "O=C(Nc1cnn(Cc2ccccc2)c1)c1n[nH]c2c1CCC1(CSC1)C2", "note": "[Example 118, N-(1-benzyl-1H-pyrazol-4-yl)-1,4,5,7-tetrahydrospiro[indazole-6,3′-thietane]-3-carboxamide]", "pKi": 7.47}
    ]}
  ]
}
